# Measured values: ChEMBL document CHEMBL1201862, “PubChem BioAssay data set” (2004)
#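 Compound exposure: 48 hours, 5 concentrations, 96-well plates. Abbreviation: GI50, concentration required for 50% inhibition of growth.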 Active and inactive are the calls of the source. No stated cut-off is given here; in the data, active = GI50 up to about 1.1 µM and inactive = higher.
# Legend:
# Assay in all cases: NCI-60 cell line screen, 48 h
# [1] = tested on: CAKI-1
# [2] = tested on: 786-0
# [3] = tested on: TK-10
# [4] = tested on: IGROV-1
# [5] = tested on: RXF 393
# [6] = tested on: EKVX
# [7] = tested on: SNB-78
# [8] = tested on: HT-29
# [9] = tested on: HCT-116
# [10] = tested on: A498
# [11] = tested on: SF-268
# [12] = tested on: LOX IMVI
# [13] = tested on: KM12
# [14] = tested on: A549
# [15] = tested on: NCI-H23
# [16] = tested on: MOLT-4
# [17] = tested on: DLD-1
# [18] = tested on: SF-539
# [19] = tested on: UACC-62
# [20] = tested on: DMS-114
# [21] = tested on: OVCAR-8
# [22] = tested on: SK-MEL-28
# [23] = tested on: OVCAR-3
# [24] = tested on: UO-31
# [25] = tested on: SW-620
# [26] = tested on: NCI-H522
# [27] = tested on: HCC 2998
# [28] = tested on: M19-MEL
# [29] = tested on: SK-MEL-2
# [30] = tested on: CCRF-CEM
# [31] = tested on: Malme-3M
# [32] = tested on: UACC-257
# [33] = tested on: U-251
# [34] = tested on: NCI-H460
# [35] = tested on: OVCAR-4
# [36] = tested on: K562
# [37] = tested on: HOP-18
# [38] = tested on: LXFL 529
# [39] = tested on: COLO 205
# [40] = tested on: HL-60
# [41] = tested on: SNB-75
# [42] = tested on: SK-MEL-5
# [43] = tested on: KM-20L2
# [44] = tested on: HOP-62
# [45] = tested on: M14
# [46] = tested on: SK-OV-3
# [47] = tested on: SF-295
# [48] = tested on: SNB-19
# [49] = tested on: RPMI-8226
# [50] = tested on: OVCAR-5
# [51] = tested on: NCI-H226
# [52] = tested on: XF498
# [53] = tested on: HCT-15
# [54] = tested on: HOP-92
# [55] = tested on: DMS-273
# [56] = tested on: SN12C
# [57] = tested on: ACHN
# [58] = tested on: SR
structure (smiles),measurement,setting,value
COc1ccc2[nH]c3c4c(c5cc(C(C)(C)C)ccc5c3c2c1)C(=O)N(c1ccccc1)C4=O,GI50,[1],> 100 µM (inactive)
same,GI50,[2],> 100 µM (inactive)
same,GI50,[3],60.5 µM (inactive)
same,GI50,[4],> 100 µM (inactive)
same,GI50,[5],> 100 µM (inactive)
same,GI50,[6],> 100 µM (inactive)
same,GI50,[7],> 100 µM (inactive)
same,GI50,[8],> 100 µM (inactive)
same,GI50,[9],> 100 µM (inactive)
same,GI50,[10],24.9 µM (inactive)
same,GI50,[11],> 100 µM (inactive)
same,GI50,[12],> 100 µM (inactive)
same,GI50,[13],> 100 µM (inactive)
same,GI50,[14],> 100 µM (inactive)
same,GI50,[15],> 100 µM (inactive)
same,GI50,[16],> 100 µM (inactive)
same,GI50,[17],13.4 µM (inactive)
same,GI50,[18],21.7 µM (inactive)
same,GI50,[19],> 100 µM (inactive)
same,GI50,[20],> 100 µM (inactive)
same,GI50,[21],44.7 µM (inactive)
same,GI50,[22],> 100 µM (inactive)
same,GI50,[23],> 100 µM (inactive)
same,GI50,[24],> 100 µM (inactive)
same,GI50,[25],> 100 µM (inactive)
same,GI50,[26],> 100 µM (inactive)
same,GI50,[27],21.3 µM (inactive)
same,GI50,[28],> 100 µM (inactive)
same,GI50,[29],> 100 µM (inactive)
same,GI50,[30],> 10 µM (inactive)
same,GI50,[31],> 100 µM (inactive)
same,GI50,[32],> 100 µM (inactive)
same,GI50,[33],27.7 µM (inactive)
same,GI50,[34],> 100 µM (inactive)
same,GI50,[35],> 100 µM (inactive)
same,GI50,[36],> 100 µM (inactive)
same,GI50,[37],34.8 µM (inactive)
same,GI50,[38],> 100 µM (inactive)
same,GI50,[39],> 100 µM (inactive)
same,GI50,[40],> 100 µM (inactive)
same,GI50,[41],57 µM (inactive)
same,GI50,[42],> 100 µM (inactive)
same,GI50,[43],> 100 µM (inactive)
same,GI50,[44],> 100 µM (inactive)
same,GI50,[45],54.3 µM (inactive)
same,GI50,[46],> 100 µM (inactive)
same,GI50,[47],> 100 µM (inactive)
same,GI50,[48],> 100 µM (inactive)
same,GI50,[49],> 100 µM (inactive)
same,GI50,[50],> 100 µM (inactive)
same,GI50,[51],> 100 µM (inactive)
O=C(/N=C(\Nc1ccccc1)SCCS/C(=N/C(=O)c1cccs1)Nc1ccccc1)c1cccs1,GI50,[1],23.3 µM (inactive)
same,GI50,[2],61.4 µM (inactive)
same,GI50,[3],> 100 µM (inactive)
same,GI50,[4],> 100 µM (inactive)
same,GI50,[5],22.6 µM (inactive)
same,GI50,[6],92.5 µM (inactive)
same,GI50,[8],33.3 µM (inactive)
same,GI50,[9],49 µM (inactive)
same,GI50,[10],56.9 µM (inactive)
same,GI50,[11],> 10 µM (inactive)
same,GI50,[12],36.3 µM (inactive)
same,GI50,[13],41 µM (inactive)
same,GI50,[14],41.8 µM (inactive)
same,GI50,[15],46.2 µM (inactive)
same,GI50,[16],24 µM (inactive)
same,GI50,[17],40 µM (inactive)
same,GI50,[52],34.4 µM (inactive)
same,GI50,[18],> 100 µM (inactive)
same,GI50,[19],47 µM (inactive)
same,GI50,[20],30.2 µM (inactive)
same,GI50,[21],73.3 µM (inactive)
same,GI50,[22],49.9 µM (inactive)
same,GI50,[23],54 µM (inactive)
same,GI50,[24],31.7 µM (inactive)
same,GI50,[25],95.7 µM (inactive)
same,GI50,[26],20.9 µM (inactive)
same,GI50,[53],44.6 µM
same,GI50,[27],35.1 µM (inactive)
same,GI50,[54],6.37 µM (inactive)
same,GI50,[55],58.7 µM (inactive)
same,GI50,[28],53.8 µM (inactive)
same,GI50,[29],94.6 µM (inactive)
same,GI50,[56],59.8 µM (inactive)
same,GI50,[30],34.8 µM (inactive)
same,GI50,[31],91.6 µM (inactive)
same,GI50,[32],33 µM (inactive)
same,GI50,[33],96.6 µM (inactive)
same,GI50,[34],31.6 µM (inactive)
same,GI50,[35],30.3 µM (inactive)
same,GI50,[36],35.2 µM (inactive)
same,GI50,[38],46.9 µM (inactive)
same,GI50,[39],77.1 µM (inactive)
same,GI50,[41],35.6 µM (inactive)
same,GI50,[42],21.5 µM (inactive)
same,GI50,[57],43.6 µM (inactive)
same,GI50,[43],41.9 µM (inactive)
same,GI50,[44],80.4 µM (inactive)
same,GI50,[45],55.8 µM (inactive)
same,GI50,[47],52.7 µM (inactive)
same,GI50,[48],> 100 µM (inactive)
same,GI50,[49],36.8 µM (inactive)
same,GI50,[50],> 100 µM (inactive)
same,GI50,[51],55.8 µM (inactive)
CCN(CC)CC/N=C\c1c(O)c(O)c(C(C)C)c2cc(C)c(-c3c(C)cc4c(C(C)C)c(O)c(O)c(/C=N/CCN(CC)CC)c4c3O)c(O)c12,GI50,[4],2.74 µM (inactive)
same,GI50,[5],1.33 µM (inactive)
same,GI50,[7],0.716 µM (active)
same,GI50,[8],1.77 µM (inactive)
same,GI50,[9],1.82 µM (inactive)
same,GI50,[11],4 µM (inactive)
same,GI50,[13],1.1 µM (active)
same,GI50,[15],2.95 µM (inactive)
same,GI50,[16],1.29 µM (inactive)
same,GI50,[18],2.2 µM (inactive)
same,GI50,[19],2.55 µM (inactive)
same,GI50,[20],1.58 µM (inactive)
same,GI50,[22],3.17 µM (inactive)
same,GI50,[23],1.59 µM (inactive)
same,GI50,[24],2.93 µM (inactive)
same,GI50,[26],0.959 µM (active)
same,GI50,[27],2.11 µM (inactive)
same,GI50,[54],2.38 µM (inactive)
same,GI50,[28],3.45 µM (inactive)
same,GI50,[29],2.3 µM (inactive)
same,GI50,[30],0.354 µM (active)
same,GI50,[31],4.16 µM (inactive)
same,GI50,[32],5.53 µM (inactive)
same,GI50,[34],2.32 µM (inactive)
same,GI50,[35],0.959 µM (active)
same,GI50,[36],1.02 µM (active)
same,GI50,[38],1.46 µM (inactive)
same,GI50,[39],3.54 µM (inactive)
same,GI50,[41],5.31 µM (inactive)
same,GI50,[57],2.66 µM (inactive)
same,GI50,[44],2.65 µM (inactive)
same,GI50,[45],1.83 µM (inactive)
same,GI50,[46],3.46 µM (inactive)
same,GI50,[47],1.58 µM (inactive)
same,GI50,[48],1.65 µM (inactive)
same,GI50,[49],1.53 µM (inactive)
Cc1ccc(Sc2ccccc2[N+](=O)[O-])cc1,GI50,[3],37.8 µM (inactive)
same,GI50,[4],83 µM (inactive)
same,GI50,[5],18 µM (inactive)
same,GI50,[6],28.6 µM (inactive)
same,GI50,[7],36.6 µM (inactive)
same,GI50,[8],19.9 µM (inactive)
same,GI50,[9],27.5 µM (inactive)
same,GI50,[10],47.6 µM (inactive)
same,GI50,[11],38.2 µM (inactive)
same,GI50,[12],27.4 µM (inactive)
same,GI50,[13],29.4 µM (inactive)
same,GI50,[14],35 µM (inactive)
same,GI50,[15],27.4 µM (inactive)
same,GI50,[16],21.9 µM (inactive)
same,GI50,[17],32.4 µM (inactive)
same,GI50,[18],33 µM (inactive)
same,GI50,[19],37.3 µM (inactive)
same,GI50,[21],32.2 µM (inactive)
same,GI50,[22],21.9 µM (inactive)
same,GI50,[23],31 µM (inactive)
same,GI50,[24],28.8 µM (inactive)
same,GI50,[25],25.9 µM (inactive)
same,GI50,[53],20 µM
same,GI50,[27],21 µM (inactive)
same,GI50,[54],19.4 µM (inactive)
same,GI50,[55],28.6 µM (inactive)
same,GI50,[28],32.1 µM (inactive)
same,GI50,[29],27.9 µM (inactive)
same,GI50,[56],29.8 µM (inactive)
same,GI50,[30],30.9 µM (inactive)
same,GI50,[31],32.3 µM (inactive)
same,GI50,[32],20 µM (inactive)
same,GI50,[33],23 µM (inactive)
same,GI50,[34],31.1 µM (inactive)
same,GI50,[35],27.4 µM (inactive)
same,GI50,[36],18.1 µM (inactive)
same,GI50,[37],> 100 µM (inactive)
same,GI50,[38],29.6 µM (inactive)
same,GI50,[39],23.4 µM (inactive)
same,GI50,[40],21 µM (inactive)
same,GI50,[41],5.71 µM (inactive)
same,GI50,[42],15.3 µM (inactive)
same,GI50,[57],43.7 µM (inactive)
same,GI50,[43],33.3 µM (inactive)
same,GI50,[44],32.1 µM (inactive)
same,GI50,[58],31.3 µM (inactive)
same,GI50,[45],29 µM (inactive)
same,GI50,[46],34.4 µM (inactive)
same,GI50,[47],21.6 µM (inactive)
same,GI50,[49],42.4 µM (inactive)
same,GI50,[50],72.3 µM (inactive)
same,GI50,[51],21.7 µM (inactive)
